Experimental data as given in US20200108043A1, “COMPOUNDS AND COMPOSITIONS FOR EXTENDING LIFESPAN OF A SUBJECT” (YALE UNIVERSITY, priority 2017, published 2020).
“Also recorded” adds a separate entry of the source. Where a name gives a salt, the structure may show the parent alone.

Tested on: S. cerevisiae
Experiment: not given
Format: cell-based
Conditions: 10 μM compound
Description: To obtain the single-cell level data for the age and generation-durations of replicatively aging mother cells, data reported in Liu, P., et al., Cell Rep. 634-644 (2015) was re-analyzed. The data was collected in the same media condition (CSM 2% glucose) as reported elsewhere herein. Cells were grown for ˜24 hours in CSM 2% glucose prior to loading to the microfluidic device. Once cells were loaded, media was swapped to provide CSM 2% glucose control media (untreated), media containing DMSO as a vehicle control (American Bio AB00435), media containing 10 μM terreic acid (Sigma SML0480), media containing 10 μM mycophenolic acid (Sigma M5255), or media containing another compound at the indicated concentration. An automated microscope was used to track […], and replicative lifespan was later determined by counting the number of daughters produced before death. In the case of compound validation, only newborn cells were included in the lifespan experiment. To compare the replicative lifespan of labeled and unlabeled cells, only cells that were present within the traps at the start of the experiment were included. For these experiments, cells were loaded to the microfluidic device at an increased rate of 100 μL/min to increase the number of trapped mother cells. Green fluorescent images were also taken at the start of the experiment to confirm that the cells were visibly labeled.
Differences in lifespan characteristics were assessed through Log-Rank test using MATLAB with a cut-off value of P=0.05. The script for Log-Rank test was downloaded from MATLAB. Differences in proteasome activity were assessed using the unpaired, two-tailed, parametric t-test function of the GraphPad Prism software.
The Longevity Placement Test (LPT) was designed as a mutually exclusive, collectively exhaustive test to determine the relationship of a longevity intervention to a known genetic regulator of lifespan. For a given intervention that extends lifespan, any of three possible relationships may exist relative to a known genetic regulator of lifespan. (1) The intervention may act to extend lifespan independently from the known regulator. (2) The […] may act downstream from the known regulator, converging on a single component of the known regulator's lifespan pathway. (3) The intervention may act upstream from or upon the known regulator, ultimately modulating lifespan through the genetic regulator.
In Step 1 of the LPT, the longevity intervention is applied to a strain in which a genetic regulator of lifespan is deleted. In the event that lifespan extension from the longevity intervention is observed in this background, only possibilities (1) and (2) above remain valid (FIG. 7B). If no lifespan extension is observed, then possibilities (2) and (3) remain valid. Possibility (2) cannot be ruled out in this step, since non-saturating action by the genetic regulator could leave room for lifespan extension by the longevity intervention, while saturating action would preclude it.
In Step 2 of the LPT, an epistatic agent, which prevents lifespan extension from the longevity agent, is applied to a strain in which some upstream member of the genetic regulator's lifespan pathway has been modified to extend lifespan. This step differentiates possibility (2) from the remaining possibility after Step 1. In the event that lifespan extension from the genetic regulator's pathway is suppressed by the epistatic agent, this determines that possibility (2) is correct. In the event that no epistasis is observed, the remaining possibility, (1) or (3), is correct (FIG. 7C).

Structure (SMILES) | toxicity in Replicator RLS experiment
O=[N+]([O-])c1ccc(O)c2ncccc12 [nitroxoline, 8-hydroxy-5-nitroquinoline] | toxic and caused most cells to arrest immediately

Same assay, conditions: 10 μM, supplied to young yeast cells throughout lifespan, vs untreated control

Structure (SMILES) | lifespan of yeast cells (Replicator validation)
N=C(N)N/N=C/c1c(Cl)cccc1Cl [guanabenz acetate] | extend the lifespan
[H]/N=C(\N/C(=N/[H])Nc1ccc(Cl)cc1)NC(C)C [proguanil hydrochloride] | extend the lifespan

Same assay, conditions: 10 μg/mL folinic acid with 10 μM proguanil, Replicator device

Structure (SMILES) | suppression of the longevity effect of proguanil
Nc1nc(=O)c2c([nH]1)NCC(CNc1ccc(C(=O)N[C@@H](CCC(=O)O)C(=O)O)cc1)N2C=O (mixture of isomers) [folinic acid] | able to suppress the longevity effect of proguanil

Tested on: Saccharomyces cerevisiae
Experiment: High-Life (High throughput replicative Lifespan measurement) flow cytometry assay in MEP yeast
Format: cell-based
Conditions: 10 μM, 24 hours in culture, 3-4 replicate wells, repeat of screen hits
Description: Cells were labeled with NHS-fluorescein as described above, then diluted to 20 cells/μL in media. 80 μL/well was aliquoted to 384-well plates, which were covered with a breathable membrane and placed on a shaker platform in a humidified incubator. After 3 hours, the plates were removed from the incubator and each well was treated with 20 μL pre-warmed, 30° C. 5 μM β-estradiol in media. In the case of ibuprofen or compound-treated wells, the compound was diluted in this volume at a 5× concentration to achieve a final concentration of 10 μM, or 100 μM for ibuprofen. The plates were then returned to the incubator. At indicated times, one plate was removed from the incubator and placed on an autosampler cooled to 8° C. attached to a Stratedigm flow cytometer. The cytometer was set to automatically add and mix 20 μL of aqueous solution containing 60 μg/mL CF405M-WGA (Biotium 29028) and propidium iodide (Sigma P4864) prior to acquiring 80 μL of sample for each well.
In order to test the lifespan of model organisms on both a large-scale and with quick turn-around, a massively multiplexed method was developed to measure replicative lifespan in the short-lived model organisms Saccharomyces cerevisiae. The protocol uses green-fluorescent labeling to identify progenitor cells, red-fluorescent labeling to differentiate non-viable cells, and blue-fluorescent labeling of bud scars to determine replicative age (FIG. 1). Each parameter is measured using a flow cytometer.
To achieve high throughput, the measurement system was automated, and the assay was performed in 384-well plates. The assay was performed using an autosampler-equipped flow cytometer, in a volume of 100 μL. Growth of even a single cell and its progeny in such a small volume will result in nutrient starvation before the natural replicative lifespan is exhausted; therefore to circumvent this issue, High-Life experiments were performed in the background of the Mother Enrichment Program (MEP) (Lindstrom and Gottschling, Genetics. 2009 October; 183(2):413-22). MEP strains express a CRE recombinase fused to an estrogen-binding domain for only a short time after birth. In the presence of β-estradiol, the recombinase translocates to the nucleus where it can excise two essential genes that have been modified to contain the exogenous LoxP sequence. Addition of β-estradiol to the media thus renders newborn daughters inviable without affecting existing mother cells, preventing exponential growth of the cell population and nutrient depletion (FIG. 2A).
The High-Life method was then tested to determine if it was suitable to screening for compounds that extend replicative lifespan. […] The effect of these compounds on High-Life readings was assayed after 24 hours in culture at 10 μM concentration. As a positive control, ibuprofen was used.

Structure (SMILES) | average High-Life readings (progenitor fraction viable vs CF405M intensity) relative to controls
Cc1ccc(Cl)c(Nc2ccccc2C(=O)O)c1Cl [meclofenamate sodium] | at least slightly above controls
N=C(N)N/N=C/c1c(Cl)cccc1Cl [guanabenz acetate] | at least slightly above controls
O=C(O)c1cc(=O)c2c(OCC(O)COc3cccc4oc(C(=O)O)cc(=O)c34)cccc2o1 [cromolyn sodium] | at least slightly above controls
CN1CCc2cccc3c2[C@H]1Cc1ccc(O)c(O)c1-3 [e hydrochloride] | at least slightly above controls
CC(=O)OCC(=O)NCCCOc1cccc(CN2CCCCC2)c1 [roxatidine acetate hydrochloride] | at least slightly above controls
N.N.[Cl][Pt][Cl] [cisplatin] | at least slightly above controls
[H]/N=C(\N/C(=N/[H])Nc1ccc(Cl)cc1)NC(C)C [proguanil hydrochloride] | at least slightly above controls
O=[N+]([O-])c1ccc(O)c2ncccc12 [nitroxoline, 8-hydroxy-5-nitroquinoline] | at least slightly above controls
Cn1c([N+](=O)[O-])cnc1COC(N)=O [ronidazole] | at least slightly above controls

Same assay, conditions: 100 μM ibuprofen vs untreated, multiple time points 0-48 h

Structure (SMILES) | replicative lifespan (High-Life)
CC(C)Cc1ccc(C(C)C(=O)O)cc1 (stereo not drawn) [ibuprofen] | increase in replicative lifespan was observed

Same assay, conditions: testing conditions identical to Example 3 (10 μM, 24 hours)

Structure (SMILES) | lifespan extending properties (High-Life)
CN(Cc1cnc2nc(N)nc(N)c2n1)c1ccc(C(=O)N[C@@H](CCC(=O)O)C(=O)O)cc1 [Methotrexate] | at least some lifespan extending properties
Cn1cnc([N+](=O)[O-])c1Sc1ncnc2nc[nH]c12 [Azathioprine] | at least some lifespan extending properties
COc1c(C)c2c(c(O)c1CC1CC1(C)CCC(=O)O)C(=O)OC2 (stereo not drawn) [3-(2-((4-Hydroxy-6-methoxy-7-methyl-3-oxo-1,3-dihydroisobenzofuran-5-yl)methyl)-1-methylcyclopropyl)propanoic acid] | measurable lifespan extension in initial tests
Cc1oncc1C(=O)Nc1ccc(C(F)(F)F)cc1 [Leflunomide] | at least some lifespan extending properties
NC(=O)c1ncn([C@@H]2O[C@H](CO)[C@@H](O)[C@H]2O)c1O [Mizoribine] | at least some lifespan extending properties
CCN(CC)CCCC(C)Nc1c2ccc(Cl)cc2nc2ccc(OC)cc12 (stereo not drawn) [Quinacrine] | at least some lifespan extending properties
COc1cc(Cc2cnc(N)nc2N)cc(OC)c1OC [Trimethoprim] | at least some lifespan extending properties
CN(C)CCCN1c2ccccc2Sc2ccc(Cl)cc21 [Chlorpromazine] | at least some lifespan extending properties
COc1c(C)c2c(c(O)c1C/C=C(\C)CCC(=O)NCc1ccncc1)C(=O)OC2 [(E)-6-(4-hydroxy-6-methoxy-7-methyl-3-oxo-1,3-dihydroisobenzofuran-5-yl)-4-methyl-N-(pyridin-4-ylmethyl)hex-4-enamide] | at least some lifespan extending properties; also recorded: measurable lifespan extension in initial tests
Cc1cc(NS(=O)(=O)c2ccc(N)cc2)no1 [Sulfamethoxazole] | at least some lifespan extending properties
N=C(N)c1ccc(OCCCCCOc2ccc(C(=N)N)cc2)cc1 [Pentamidine] | at least some lifespan extending properties
Nc1nc2[nH]cc(CCc3ccc(C(=O)N[C@@H](CCC(=O)O)C(=O)O)cc3)c2c(=O)[nH]1 [Pemetrexed] | at least some lifespan extending properties

Same assay, conditions: testing conditions identical to Example 3 (10 μM, 24 hours); listed as 3-(2-((4-Hydroxy-6-methoxy-7-methyl-2-oxo-1,3-dihydroisobenzofuran-5-yl)methyl)-

Structure (SMILES) | lifespan extending properties (High-Life)
COc1c(C)c2c(c(O)c1CC1CC1(C)CCC(=O)O)C(=O)OC2 (stereo not drawn) [3-(2-((4-Hydroxy-6-methoxy-7-methyl-3-oxo-1,3-dihydroisobenzofuran-5-yl)methyl)-1-methylcyclopropyl)propanoic acid] | at least some lifespan extending properties
